pIC50: −log10 of the molar value. Where two headings read alike, the source gives them in different places.
Experiments:
MiaPaCa-2 cells [1] = assay: Cell proliferation (cell confluence), IncuCyte Live-Cell Analysis System; format: cell-based, human; conditions: for pIC50: Homo sapiens
Protocol: The following cell lines were obtained from the American Type Culture Collection (Manassas, VA), where they were regularly authenticated: MiaPaCa-2 (ATCC Cat# CRL-1420, human pancreatic cancer cells), U87MG (ATCC Cat# HTB-14, human brain cancer cells), A549 (ATCC Cat# CCL-185, lung cancer cells), and HCT-116 (ATCC Cat# CCL-247, colon cancer cells). All cell lines were grown at 37 °C in 5% carbon dioxide. MiaPaCa-2 cells were maintained in Dulbecco's Modified Eagle Medium (Thermo Fisher Scientific, Waltham, MA; Cat# 11965) supplemented with 10% fetal bovine serum. U87MG, A549, and HCT-116 cells were maintained in RPMI 1640 medium (Thermo Fisher Scientific, Cat# 11875), supplemented with 10% fetal bovine serum. All cells were stored in liquid nitrogen and used within 20 passages after thawing.
The IncuCyte Live-Cell Analysis System was used to monitor cell proliferation[3],[33],[67]. As shown in previous publications[3],[67], this imaging system is probe-free and noninvasive, and enables continuous monitoring of cell confluence over several days. The increase in the percentage of cell confluence was used as a surrogate marker of cell proliferation. In a 96-well plate, cells were plated at 1,000 cells per well in triplicates and left to adhere overnight. Cells were then treated with Mito-PEG-ATO analogs, and the cell confluency was recorded over several days in the IncuCyte Live-Cell Analysis System.

MiaPaCa-2 cells [2] = assay: Intracellular oxidants: HPLC of hydroethidine (HE) oxidation products; format: cell-based, human; conditions: 24 h, with Mito-PEG5-ATO 0.05 µM, AZD-3965 200 µM or CPI-613 200 µM
Protocol: Hydroethidine (HE) or dihydroethidium was used as a fluorogenic probe to assess the cellular generation of superoxide and other peroxidatic oxidants[36],[37]. Cells were treated for 24 h with Mito-PEG5-ATO alone or in combination with AZD-3965 or CPI-613, followed by 1 h incubation with HE (10 µM). Cells were harvested and the cell pellet stored at − 80 °C until the day of high-performance liquid chromatography (HPLC) analysis. Sample preparation and HPLC analysis were performed as previously reported[32],[36]. 2-OH-E^+ was used as a specific marker for superoxide, and E^+-E^+ was used as a specific marker for intracellular one-electron oxidants[36],[37].
HE was purchased from Invitrogen (Carlsbad, CA). Stock solutions (20 mM and 5 mM, respectively) were prepared in deoxygenated DMSO (dimethyl sulfoxide) and stored at − 80 °C until use. Ethidium cation (bromide salt) was purchased from Sigma-Aldrich. The hydroxylated oxidation products from HE (2-OH-E^+) were prepared by reacting the probes with Fremy’s salt as previously described in detail[70],[71]. The dimeric products were prepared by reacting the probes with excess potassium ferricyanide, as detailed elsewhere. Synthesized standards of all oxidation products of HE were purified by HPLC. HPLC-based measurements of HE and its oxidation products were performed using an Agilent 1100 system equipped with absorption and fluorescence detectors and refrigerated autosampler (4 °C). The samples (50 µL) were injected into a reverse phase column (Phenomenex, Kinetex C18, 100 mm × 4.6 mm, 2.6 µm) equilibrated with 20% acetonitrile and 80% water containing 0.1% trifluoroacetic acid. The compounds were eluted by increasing the content of acetonitrile from 20 to 56% over 4.5 min at a flow rate of 1.5 mL/min. The absorption detector was used to measure 3,8-diamino-6-phenylphenanthridine (at 290 nm; retention time: 2.5 min), HE-E^+ (at 290 nm; retention time: 4.1 min), E^+-E^+ (at 290 nm; retention time: 4.3 min), and HE (at 370 nm; retention time: 1.6 min). A fluorescence detector (initial excitation at 358 nm and emission at 440 nm) was used to monitor HE (when present at low concentrations). At 2.3 min after injection, the fluorescence parameters were changed (excitation at 490 nm and emission at 567 nm) for sensitive detection of 2-OH-E^+ (retention time: 3.2 min) and E^+ (retention time: 3.3 min).

[3] = tested on: mitochondrial respiration (OCR) in intact MiaPaCa-2 cells; assay: Intact cell mitochondrial respiration (basal OCR), Seahorse XF-96; format: cell-based, human
Protocol: (§1) Mitochondrial oxygen consumption was measured using the Seahorse XF-96 Extracellular Flux Analyzer (Agilent, North Billerica, MA)[3],[33],[67],[68]. To determine the intact cell mitochondrial function of MiaPaCa-2 cells in response to Mito-PEG-ATO analogs, we used the bioenergetic function assay previously described[2],[3]. […] From these measurements, indices of mitochondrial function were determined as previously described[2],[3]. For mitochondrial complex activities assays, after cells were treated with Mito-PEG-ATO analogs for 24 h, the OCR-based assessment of mitochondrial complex activities was carried out on acutely permeabilized cells in the presence of different mitochondrial substrates, i.e., pyruvate/malate for complex I and duroquinol for complex III[3],[32],[34],[69]. Rotenone, malonate, and antimycin A (Sigma-Aldrich, St. Louis, MO) were used as specific inhibitors of mitochondrial complexes I, II, and III, respectively. Briefly, cells that were intact after treatments were immediately permeabilized using the Seahorse XF Plasma Membrane Permeabilizer (Agilent). The mitochondrial complex I-induced OCR was assayed in mannitol and sucrose buffer[69] containing 10 mM pyruvate and 1.5 mM malate (substrates for complex I) and 10 mM malonate (which inhibits complex II activities). The mitochondrial complex III-driven OCR was assayed in a mannitol and sucrose buffer containing 0.5 mM duroquinol (substrate for complex III) as well as 1 µM rotenone and 10 mM malonate (which inhibit both complex I and II activities). The IC50 values were determined as previously reported.

[4] = target: mitochondrial complex III (MiaPaCa-2 cells) (Homo sapiens, UniProt P00156); assay: Complex III-dependent oxygen consumption in permeabilized cells, Seahorse XF-96; format: cell-based
Protocol: as §1

Chain of mitochondrial complex III (MiaPaCa-2 cells) (P00156 whole entry): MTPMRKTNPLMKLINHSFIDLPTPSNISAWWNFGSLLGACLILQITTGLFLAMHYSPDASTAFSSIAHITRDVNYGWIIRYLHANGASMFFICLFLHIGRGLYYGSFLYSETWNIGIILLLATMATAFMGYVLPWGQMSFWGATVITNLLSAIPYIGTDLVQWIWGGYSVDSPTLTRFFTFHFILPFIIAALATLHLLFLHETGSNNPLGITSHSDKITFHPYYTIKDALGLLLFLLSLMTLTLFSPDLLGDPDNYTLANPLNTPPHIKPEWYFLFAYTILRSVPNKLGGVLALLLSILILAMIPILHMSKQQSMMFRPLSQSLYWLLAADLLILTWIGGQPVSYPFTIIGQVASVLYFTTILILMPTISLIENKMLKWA
Chain of mitochondrial complex III (MiaPaCa-2 cells) (P47985 whole entry partner): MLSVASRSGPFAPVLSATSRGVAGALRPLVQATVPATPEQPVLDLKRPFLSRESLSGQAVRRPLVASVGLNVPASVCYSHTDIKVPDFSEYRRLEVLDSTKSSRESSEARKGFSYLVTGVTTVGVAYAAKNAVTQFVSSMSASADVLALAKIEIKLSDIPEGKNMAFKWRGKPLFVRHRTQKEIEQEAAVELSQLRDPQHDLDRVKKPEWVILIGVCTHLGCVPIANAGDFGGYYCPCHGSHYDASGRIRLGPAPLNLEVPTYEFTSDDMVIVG

## O=C(O)CCCCC(CCSCc1ccccc1)SCc1ccccc1 (stereo not shown) [CPI-613, reference compound]
MiaPaCa-2 cells [1]; MIA PaCa-2, MiaPaCa-2 cells, inhibitor alone, control ~90% confluence, read-out: IC50 (cell proliferation) without Mito-PEG5-ATO
  pIC50: 3.71
MiaPaCa-2 cells [1]; MiaPaCa-2 cells, 200 µM
  Inhibition of cell proliferation, alone: only moderately inhibited cell proliferation
MiaPaCa-2 cells [1]; MiaPaCa-2 cells, combined with Mito-PEG5-ATO
  Inhibition of cell proliferation in combination with Mito-PEG5-ATO (combination index): synergistically inhibited cell proliferation
MiaPaCa-2 cells [1]; MiaPaCa-2 cells, heat map Fig. 7d
  % changes of IC50 with vs without Mito-PEG5-ATO: 38.6%
MiaPaCa-2 cells [2]
  Intracellular oxidant-induced HE-derived products, in combination with Mito-PEG5-ATO: modest and additive increase

## O=C1C(OCCOCCOCCOCCOCCOCCOCCOCCOCC[P+](c2ccccc2)(c2ccccc2)c2ccccc2)=C([C@H]2CC[C@H](c3ccc(Cl)cc3)CC2)C(=O)c2ccccc21.[Br-] [Mito-PEG9-ATO, (26-((3-(trans-4-(4-chlorophenyl)cyclohexyl)-1,4-dioxo-1,4-dihydronaphthalen-2-yl)oxy)-3,6,9,12,15,18,21,24-octaoxahexacosyl)triphenylphosphonium bromide]
MiaPaCa-2 cells [1]; MIA PaCa-2, read-out: IC50, inhibition of cell proliferation
  pIC50: 6.80
MiaPaCa-2 cells [1]; MiaPaCa-2 cells, 0.01 µM, control ~90% confluence
  Cell confluence (% of control): 99.63 % of control
MiaPaCa-2 cells [1]; MiaPaCa-2 cells, 0.03 µM, control ~90% confluence
  Cell confluence (% of control): 99.03 % of control
MiaPaCa-2 cells [1]; MiaPaCa-2 cells, 0.1 µM, control ~90% confluence
  Cell confluence (% of control): 81.02 % of control
MiaPaCa-2 cells [1]; MiaPaCa-2 cells, 0.15 µM, control ~90% confluence
  Cell confluence (% of control): 60.68 % of control
MiaPaCa-2 cells [1]; MiaPaCa-2 cells, 0.2 µM, control ~90% confluence
  Cell confluence (% of control): 25.97 % of control
MiaPaCa-2 cells [1]; MiaPaCa-2 cells, 0.25 µM, control ~90% confluence
  Cell confluence (% of control): 14.32 % of control
MiaPaCa-2 cells [1]; MiaPaCa-2 cells, 0.3 µM, control ~90% confluence
  Cell confluence (% of control): 10.81 % of control
MiaPaCa-2 cells [1]; MiaPaCa-2 cells, 0.4 µM, control ~90% confluence
  Cell confluence (% of control): 7.81 % of control
MiaPaCa-2 cells [1]; MiaPaCa-2 cells, 0.5 µM, control ~90% confluence
  Cell confluence (% of control): 5.89 % of control
MiaPaCa-2 cells [1]; MiaPaCa-2 cells, 1 µM, control ~90% confluence
  Cell confluence (% of control): 4.84 % of control
MiaPaCa-2 cells [1]; MiaPaCa-2 cells, 5 µM, control ~90% confluence
  Cell confluence (% of control): 3.30 % of control
[3]; 0.01 µM, 24 h treatment, intact MiaPaCa-2 cells, baseline OCR, mean, n=4
  OCR (pmol/min/µg protein): 13.41 pmol/min/µg protein
[3]; 0.03 µM, 24 h treatment, intact MiaPaCa-2 cells, mean, n=4
  OCR (basal, intact cell mitochondrial respiration): 12.24 pmol/min/µg protein
[3]; 0.1 µM, 24 h treatment, intact MiaPaCa-2 cells, mean, n=4
  OCR (basal, intact cell mitochondrial respiration): 7.60 pmol/min/µg protein
[3]; 0.2 µM, 24 h treatment, intact MiaPaCa-2 cells, mean, n=4
  OCR (basal, intact cell mitochondrial respiration): 3.64 pmol/min/µg protein
[3]; 0.3 µM, 24 h treatment, intact MiaPaCa-2 cells, mean, n=4
  OCR (basal, intact cell mitochondrial respiration): 1.87 pmol/min/µg protein
[3]; 0.4 µM, 24 h treatment, intact MiaPaCa-2 cells, mean, n=4
  OCR (basal, intact cell mitochondrial respiration): 1.43 pmol/min/µg protein
[3]; 0.5 µM, 24 h treatment, intact MiaPaCa-2 cells, mean, n=4
  OCR (basal, intact cell mitochondrial respiration): 1.22 pmol/min/µg protein
[3]; 1 µM, 24 h treatment, intact MiaPaCa-2 cells, mean, n=4
  OCR (basal, intact cell mitochondrial respiration): 1.18 pmol/min/µg protein
[3]; 3 µM, 24 h treatment, intact MiaPaCa-2 cells, mean, n=4
  OCR (basal, intact cell mitochondrial respiration): 0.96 pmol/min/µg protein
[3]; 5 µM, 24 h treatment, intact MiaPaCa-2 cells, mean, n=4
  OCR (basal, intact cell mitochondrial respiration): 0.01 pmol/min/µg protein
[3]; Homo sapiens, MIA PaCa-2, 24 h, read-out: IC50, inhibition of basal OCR in intact cells
  pIC50: 6.96
[4]; 0.003 µM
  Complex III activity (OCR, % of control): 101.6 % of control
[4]; 0.01 µM
  Complex III activity (OCR, % of control): 95.6 % of control
[4]; 0.03 µM
  Complex III activity (OCR, % of control): 96.5 % of control
[4]; 0.05 µM
  Complex III activity (OCR, % of control): 100.1 % of control
[4]; 0.1 µM
  Complex III activity (OCR, % of control): 95.3 % of control
[4]; 0.2 µM
  Complex III activity (OCR, % of control): 93.6 % of control
[4]; 0.3 µM
  Complex III activity (OCR, % of control): 92.1 % of control
[4]; 0.4 µM
  Complex III activity (OCR, % of control): 72.1 % of control
[4]; 0.5 µM
  Complex III activity (OCR, % of control): 48.1 % of control
[4]; 0.75 µM
  Complex III activity (OCR, % of control): 16.6 % of control
[4]; 1 µM
  Complex III activity (OCR, % of control): 4.7 % of control
[4]; MiaPaCa-2 cells, 24 h treatment, antimycin A-inhibitable OCR, read-out: IC50, complex III-induced oxygen consumption (Complex III activity)
  pIC50: 6.30
